Results published in PubChem BioAssay (NCI).
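Protocol summary: plate cells (96-well), add compound at 5 concentrations, incubate 48 h, interpolate endpoints linearly. The concentration for 50% growth inhibition is given as GI50. TGI: total growth inhibition.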

How the values were obtained:
Experiment in all cases: growth of human tumour cells (NCI), 48 h
A498 renal = system: A498 renal
T-47D breast = system: T-47D breast
EKVX NSCLC = system: EKVX NSCLC
UACC-257 melanoma = system: UACC-257 melanoma
OVCAR-5 ovarian = system: OVCAR-5 ovarian
MDA-MB-231 breast = system: MDA-MB-231 breast
SK-OV-3 ovarian = system: SK-OV-3 ovarian
M14 melanoma = system: M14 melanoma
786-0 renal = system: 786-0 renal
A549 NSCLC = system: A549 NSCLC
LOX IMVI melanoma = system: LOX IMVI melanoma
IGROV1 ovarian = system: IGROV1 ovarian
MALME-3M melanoma = system: MALME-3M melanoma
NCI-H522 lung = system: NCI-H522 lung
U251 CNS = system: U251 CNS
DU-145 prostate = system: DU-145 prostate
NCI-H23 lung = system: NCI-H23 lung
SK-MEL-2 melanoma = system: SK-MEL-2 melanoma
NCI/ADR-RES ovarian = system: NCI/ADR-RES ovarian
SF-539 CNS = system: SF-539 CNS
OVCAR-8 ovarian = system: OVCAR-8 ovarian
ACHN renal = system: ACHN renal
CAKI-1 renal = system: CAKI-1 renal
HS 578T breast = system: HS 578T breast
KM12 colon = system: KM12 colon
MOLT-4 leukemia = system: MOLT-4 leukemia
SN12C renal = system: SN12C renal
HCT-116 colon = system: HCT-116 colon
HCC-2998 colon = system: HCC-2998 colon
SK-MEL-5 melanoma = system: SK-MEL-5 melanoma

Q: How did the GI50 (A498 renal) turn out when `OC(c1ccccc1)(c1ccccc1)C1CCN(c2ccc3nnc(Cl)n3n2)CC1` was run?
A: 16.8 µM

Q: And the TGI (A498 renal)?
A: 32.6 µM

Q: What about the GI50 (T-47D breast) of the same compound?
A: 20.6 µM

Q: What about the TGI (T-47D breast) of the same compound?
A: > 100 µM

Q: What about the GI50 (EKVX NSCLC) of the same compound?
A: 15.5 µM

Q: What about the TGI (EKVX NSCLC) of the same compound?
A: 54.3 µM

Q: What about the GI50 (UACC-257 melanoma) of the same compound?
A: 18.5 µM

Q: What about the TGI (UACC-257 melanoma) of the same compound?
A: 37.9 µM

Q: What about the GI50 (OVCAR-5 ovarian) of the same compound?
A: 17.5 µM

Q: And the TGI (OVCAR-5 ovarian)?
A: 45.2 µM

Q: What about the GI50 (MDA-MB-231 breast) of the same compound?
A: 15.4 µM

Q: And the TGI (MDA-MB-231 breast)?
A: 30.4 µM

Q: What about the GI50 (SK-OV-3 ovarian) of the same compound?
A: 42.1 µM

Q: And the TGI (SK-OV-3 ovarian)?
A: > 100 µM

Q: And the GI50 (M14 melanoma)?
A: 17.4 µM

Q: What about the TGI (M14 melanoma) of the same compound?
A: 34.9 µM

Q: What about the GI50 (786-0 renal) of the same compound?
A: 25 µM

Q: What about the TGI (786-0 renal) of the same compound?
A: 71.8 µM

Q: And the GI50 (A549 NSCLC)?
A: 18 µM

Q: What about the TGI (A549 NSCLC) of the same compound?
A: > 100 µM

Q: What about the GI50 (LOX IMVI melanoma) of the same compound?
A: 15.3 µM

Q: And the TGI (LOX IMVI melanoma)?
A: 29 µM

Q: What about the GI50 (IGROV1 ovarian) of the same compound?
A: 16.4 µM

Q: What about the TGI (IGROV1 ovarian) of the same compound?
A: 41.9 µM

Q: What about the GI50 (MALME-3M melanoma) of the same compound?
A: 19.5 µM

Q: What about the TGI (MALME-3M melanoma) of the same compound?
A: 33.9 µM

Q: And the GI50 (NCI-H522 lung)?
A: 15.6 µM

Q: And the TGI (NCI-H522 lung)?
A: 49.1 µM

Q: And the GI50 (U251 CNS)?
A: 18 µM

Q: And the TGI (U251 CNS)?
A: 39.6 µM

Q: What about the GI50 (DU-145 prostate) of the same compound?
A: 24 µM

Q: What about the TGI (DU-145 prostate) of the same compound?
A: > 100 µM

Q: What about the GI50 (NCI-H23 lung) of the same compound?
A: 16.8 µM

Q: And the TGI (NCI-H23 lung)?
A: 37.3 µM

Q: And the GI50 (SK-MEL-2 melanoma)?
A: 16.5 µM

Q: And the TGI (SK-MEL-2 melanoma)?
A: 32.8 µM

Q: What about the GI50 (NCI/ADR-RES ovarian) of the same compound?
A: 18 µM

Q: What about the TGI (NCI/ADR-RES ovarian) of the same compound?
A: 63.3 µM

Q: And the GI50 (SF-539 CNS)?
A: 17.2 µM

Q: And the TGI (SF-539 CNS)?
A: 38.7 µM

Q: What about the GI50 (OVCAR-8 ovarian) of the same compound?
A: 25.7 µM

Q: And the TGI (OVCAR-8 ovarian)?
A: 76.9 µM

Q: What about the GI50 (ACHN renal) of the same compound?
A: 14.2 µM

Q: And the TGI (ACHN renal)?
A: 44.8 µM

Q: What about the GI50 (CAKI-1 renal) of the same compound?
A: 15.6 µM

Q: And the TGI (CAKI-1 renal)?
A: 81.3 µM

Q: And the GI50 (HS 578T breast)?
A: 22 µM

Q: What about the TGI (HS 578T breast) of the same compound?
A: 53.2 µM

Q: And the GI50 (KM12 colon)?
A: 16.2 µM

Q: And the TGI (KM12 colon)?
A: 42.5 µM

Q: What about the GI50 (MOLT-4 leukemia) of the same compound?
A: 4.18 µM

Q: What about the TGI (MOLT-4 leukemia) of the same compound?
A: 31.6 µM

Q: What about the GI50 (SN12C renal) of the same compound?
A: 17.5 µM

Q: And the TGI (SN12C renal)?
A: 40 µM

Q: And the GI50 (HCT-116 colon)?
A: 14.1 µM

Q: What about the TGI (HCT-116 colon) of the same compound?
A: 39.1 µM

Q: And the GI50 (HCC-2998 colon)?
A: 15.5 µM

Q: What about the TGI (HCC-2998 colon) of the same compound?
A: 29.9 µM

Q: What about the GI50 (SK-MEL-5 melanoma) of the same compound?
A: 13.7 µM
